Source: EP0268178A1, “Pyrrolo-benzimidazoles, medicaments containing these compounds and process for their preparation” (Dr. Karl Thomae GmbH, priority 1986, dated 1988)

Tested on: narkotisierten Katze
Experiment: Blood-pressure-lowering and positive inotropic effect in the anaesthetised cat
Type: in vivo, Katzen
Settings: mean of 2 cats; for diastol. Blutdruckänderung in mmHg: anaesthetised cats (Pentobarbital-Natrium), 0,3 mg/kg i.v., Aorta abdominalis; for Zunahme von dp/dt in %: dp/dt max from left ventricular pressure
Procedure: 1. Bestimmung der blutdrucksenkenden und ositiv inotropen Wirkung an der narkotisierten Katze:
Die Untersuchungen wurden an Katzen durchgeführt, die mit Pentobarbital-Natrium (40 mg/kg i.p. + 8 mg/kg/Stunde) narkotisiert waren. Die Tiere atmeten spontan. Der arterielle Blutdruck wurde in der Aorta abdominalis mit einem StathamDruckwandler (P 23 Dc) gemessen. Für die Erfassung der positiv inotropen Wirkung wurde mit einem Kathetertipmanometer (Millar PC-350 A) der Druck in der linken Herzkammer gemessen. Daraus wurde der Kontraktilitätsparameter dp/dt max mittels eines Analogdifferenzierers gewonnen. Die zu untersuchende Substanz wurde in eine Vena femoralis injiziert. Als Lösungsmittel diente Polydiol 200. Die Substanz wurde an 2 Katzen geprüft, Dosis 0,3 mg/kg i.v..

[1] = anaesthetised cats, 0,3 mg/kg i.v.

SMILES	diastol. Blutdruckänderung in mmHg	Wirkungsdauer (Halbwertszeit) [1]	Zunahme von dp/dt in % [1]	Zunahme der Herzfrequenz [1]
CCN1C(=O)C(C)(C)c2cc3[nH]c(-c4ccncc4)nc3cc21 [A, 5-Äthyl-7,7-dimethyl-2-(4-pyridyl)-6,7-dihyro-3H,5H-pyrrolo[2,3-f]benzimidazol-6-on]	-33 mmHg	>80 Minuten	+55%	
CCN1C(=O)C(C)(C)c2cc3[nH]c(-c4ccc(S(C)(=O)=O)cc4)nc3cc21 [C, 5-Äthyl-7,7-dimethyl-2-(4-methylsulfonyl-phenyl)-6,7-dihydro-3H,5H-pyrrolo[2,3-f]benzimidazol-6-on]	-16 mmHg	>60 Minuten	+91%	+12%
CCN1C(=O)C(C)(C)c2cc3[nH]c(-c4ccco4)nc3cc21 [B, 5-Äthyl-7,7-dimethyl-2-(2-furyl)-6,7-dihydro-3H,5H-pyrrolo[2,3-f]benzimidazol-6-on]	-31 mmHg	26 Minuten	+49%	
CCN1C(=O)C(C)(C)c2cc3[nH]c(-c4ocnc4C)nc3cc21 [D, 5-Äthyl-7,7-dimethyl-2-(4-methyl-oxazol-5-yl)-6,7-dihydro-3H,5H-pyrrolo[2,3-f]benzimidazol-B-on]	-31 mmHg	7 Minuten	+50%	
